From patent US10245270B2, “Salt of 3-[(3-{[4-(4-morpholinylmethyl)-1H-pyrrol-2-yl]methylene}-2-oxo-2,3-dihydro-1H-indol-5-yl)methyl]-1,3-thiazolidine-2,4-dione, its preparation, and formulations containing it” (LES LABORATOIRES SERVIER, priority 2013, dated 2019)
Like-named read-outs stand apart in the source and are kept apart here.

Experiments:
[1] = tested on: cancer cells; conditions: cited from earlier work
[2] = Constant surface area (intrinsic) dissolution kinetics at pH 2; format: physicochemical; conditions: for dissolution kinetics: pH 2 (0.01N HCl), ambient temperature, pellets of 0.075 cm^2, 100 rpm
Procedure: The constant surface area dissolution kinetics (or intrinsic dissolution kinetics) of the product of Example 1 were determined at ambient temperature at pH 2 (10 mL of 0.01N HCl) using a μDiss dissolution apparatus and pellets of 0.075 cm^2, prepared by compression at 90 bars, for 2 minutes at a stirring speed of 100 rpm.
The product of Example 1 dissolves with kinetics of 23 μg·s^−1·cm^−2+/−11%. By way of comparison, the dissolution kinetics of the corresponding hydrochloride are 1.6 μg·s^−1·cm^−2. The methanesulphonate therefore dissolves about 14 times faster than the corresponding hydrochloride.

[3] = Solubility in water, 24 hours stirring at ambient temperature, HPLC analysis; format: physicochemical; conditions: for solubility at 24 h: thermodynamic from solid
Procedure: A solution containing 140 mg of the compound obtained in Example 1 in 7 ml of water is stirred for 24 hours at ambient temperature. After filtration using an Acrodisc GJHP 0.45[…] μm, the solution is analysed by HPLC.

[4] = Purity and stability under denaturing conditions (HPLC, X-ray diffractogram, DSC); format: physicochemical
Procedure: The compound of formula (II) according to the invention has excellent stability over time even under denaturing conditions: at 25° C./60% relative humidity, at 25° C./90% relative humidity, at 30° C./65% relative humidity, at 40° C./75% relative humidity, or at 50° C., the compound of formula (II) is unchanged after 6 months.
EXAMPLE 2: PURITY AND STABILITY OF 3[(3-{[4-(4-MORPHOLINYLMETHYL)-1H-PYRROL-2-YL]METHYLENE}-2-OXO-2,3-DIHYDRO-1H-INDOL-5-YL)METHYL]-1,3-THIAZOLIDINE-2,4-DIONE METHANESULPHONATE, Z ISOMER, UNDER DENATURING CONDITIONS

[5] = After 6 months, 25° C./60% relative humidity
[6] = After 6 months, 25° C./90% relative humidity
[7] = After 6 months, 30° C./65% relative humidity
[8] = After 6 months, 40° C./75% relative humidity

For `O=C1Nc2ccc(CN3C(=O)CSC3=O)cc2C1=Cc1cc(CN2CCOCC2)c[nH]1` [3-[(3-{[4-(4-morpholinylmethyl)-1H-pyrrol-2-yl]methylene}-2-oxo-2,3-dihydro-1H-indol-5-yl)methyl]-1,3-thiazolidine-2,4-dione], the “ability to inhibit the migration of cancer cells” value [1] is given as “has the ability to inhibit the migration of cancer cells”.

With `Cl.O=C1Nc2ccc(CN3C(=O)CSC3=O)cc2/C1=C/c1cc(CN2CCOCC2)c[nH]1` (single isomer, unassigned) [hydrochloride of 3-[(3-([4-{(4-morpholinylmethyl)-1H-pyrrol-2-yl]methylene}-2-oxo-2,3-dihydro-1H-indol-5-yl)methyl]-1,3-thiazolidine-2,4-dione, Z isomer, reference compound] the dissolution kinetics [2] was 1.6 μg·s^−1·cm^−2, the solubility ([3]; as the salt) was 4.3 mg/mL and the “solubility in terms of the base equivalent” value ([3]; base equivalent) was 4 mg/mL.

In the case of `CS(=O)(=O)O.O=C1Nc2ccc(CN3C(=O)CSC3=O)cc2C1=Cc1cc(CN2CCOCC2)c[nH]1` [compound of formula (II), 3-[(3-{[4-(4-morpholinylmethyl)-1H-pyrrol-2-yl]methylene}-2-oxo-2,3-dihydro-1H-indol-5-yl)methyl]-1,3-thiazolidine-2,4-dione methanesulphonate], the “stability over time under denaturing conditions” value ([4]; after 6 months at 25° C./60% RH, 25° C./90% RH, 30° C./65% RH, 40° C./75% RH or 50° C.) is reported as “unchanged”.

With `O=C1Nc2ccc(CN3C(=O)CSC3=O)cc2C1=Cc1cc(CN2CCOCC2)c[nH]1` [Example 1, 3-[(3-{[4-(4-MORPHOLINYLMETHYL)-1H-PYRROL-2-YL]METHYLENE}-2-OXO-2,3-DIHYDRO-1H-INDOL-5-YL)METHYL]-1,3-THIAZOLIDINE-2,4-DIONE METHANESULPHONATE, Z ISOMER] the “DSC (thermogram)” value [4, 5] was “unchanged”, the “HPLC (% Example 1)” value [4, 5] was 99.8% and the “XR (diffractogram)” value [4, 5] was “unchanged”. For the same molecule, the “DSC (thermogram)” value [4, 6] was “unchanged”, the “HPLC (% Example 1)” value [4, 6] was 99.8% and the “XR (diffractogram)” value [4, 6] was “unchanged”. For the same molecule, the “DSC (thermogram)” value [4, 7] was “unchanged”, the “HPLC (% Example 1)” value [4, 7] was 99.8% and the “XR (diffractogram)” value [4, 7] was “unchanged”. The “DSC (thermogram)” value [4, 8] was “unchanged”, the “HPLC (% Example 1)” value [4, 8] was 99.8% and the “XR (diffractogram)” value [4, 8] was “unchanged”. For the same molecule, the “DSC (thermogram)” value ([4]; After 6 months, 50° C.) was “unchanged”, the “HPLC (% Example 1)” value ([4]; After 6 months, 50° C.) was 99.8% and the “XR (diffractogram)” value ([4]; After 6 months, 50° C.) was “unchanged”. The “HPLC (% Example 1)” value ([4]; t = 0) was 99.8%, the dissolution kinetics [2] was 23 μg·s^−1·cm^−2 and the “dissolution rate relative to the corresponding hydrochloride” value ([2]; pH 2, ambient temperature) was “about 14 times faster”. It also gave a solubility at 24 h ([3]; as the salt, read-out: solubility) of 14.7 mg/mL and a solubility at 24 h ([3]; base equivalent, read-out: solubility in terms of the base equivalent) of 12.1 mg/mL.
